Test results taken from PubChem BioAssay (NCI).
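1) Cells in 96-well plates. 2) Compound, 48 h, 5 concentrations. 3) Linear interpolation between surrounding doses. 4) Unreached endpoint = highest concentration. GI50 = concentration required for 50% inhibition of growth. At the TGI there is no net growth.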

Legend:
Test in all cases: NCI anticancer screen, dose series, 48 h
[1] = system: HCT-116 colon
[2] = system: ACHN renal
[3] = system: U251 CNS
[4] = system: M14 melanoma
[5] = system: SK-OV-3 ovarian
[6] = system: RXF 393 renal
[7] = system: OVCAR-8 ovarian
[8] = system: TK-10 renal
[9] = system: 786-0 renal
[10] = system: MALME-3M melanoma

SMILES | TGI [1] | TGI [2] | TGI [3] | TGI [4] | TGI [5] | TGI [6] | TGI [7] | TGI [8] | TGI [9] | TGI [10] | GI50 [1] | GI50 [2] | GI50 [4] | GI50 [5] | GI50 [6] | GI50 [7] | GI50 [8] | GI50 [10] | GI50 [3]
OCC(Cn1cncn1)(c1ccc(F)cc1F)n1cncn1 (configuration not stated) | > 100 µM | > 100 µM | > 100 µM | > 100 µM | > 100 µM | > 100 µM | > 100 µM | > 100 µM | > 100 µM | > 100 µM |  |  |  |  |  |  |  |  | 
S=c1nc2[nH]c3ccc(Br)cc3c2n[nH]1 | > 100 µM |  | > 100 µM | > 100 µM | > 100 µM | > 100 µM | > 100 µM | > 100 µM | > 100 µM | > 100 µM |  |  |  |  |  |  |  |  | 
CC(NC1=NCCO1)c1cccc([N+](=O)[O-])c1 (configuration not stated) | > 100 µM | > 100 µM | > 100 µM | > 100 µM | > 100 µM | > 100 µM | > 100 µM | > 100 µM | > 100 µM | > 100 µM |  |  |  |  |  |  |  |  | 
CN(C)CCOC(=O)c1ccc(N)cc1 | > 100 µM | > 100 µM | > 100 µM | 34.8 µM | > 100 µM | > 100 µM | > 100 µM | > 100 µM | > 100 µM | > 100 µM |  |  |  |  |  |  |  |  | 
[N-]=[N+]=NC1CC(n2cc(COCC(F)(F)F)c(=O)[nH]c2=O)OC1CO (configuration not stated) |  | > 100 µM | > 100 µM | > 100 µM | > 100 µM | > 100 µM | > 100 µM | > 100 µM | > 100 µM | > 100 µM |  |  |  |  |  |  |  |  | 
O=C(Nc1nnc(-c2ccccc2)o1)C(SC(=S)N1CCOCC1)c1ccccc1 (configuration not stated) | > 100 µM | > 100 µM | > 100 µM | > 100 µM | > 100 µM | > 100 µM | > 100 µM | > 100 µM | > 100 µM | > 100 µM |  |  |  |  |  |  |  |  | 
CCOC(=O)CCc1c(C(=O)OCC)[nH]c(/C=C2\NC(=O)C(C)=C2CC)c1C | > 100 µM | 41.2 µM | 33.9 µM | > 100 µM | 48.3 µM | 49 µM | 18.9 µM |  | 27.5 µM | 41.1 µM |  |  |  |  |  |  |  |  | 
O=C(OCCN1CCCCC1)C(c1ccccc1)C1(O)CCSCC1 (configuration not stated) | > 100 µM | > 100 µM | > 100 µM | > 100 µM | > 100 µM | > 100 µM | > 100 µM | > 100 µM | > 100 µM | > 100 µM |  |  |  |  |  |  |  |  | 
CCOC(=O)C(NC(=O)CC(C)C)(Nc1ccc(C(F)(F)F)cc1)C(F)(F)F (configuration not stated) | > 100 µM | 91 µM | > 100 µM | > 100 µM | > 100 µM | > 100 µM | > 100 µM | > 100 µM | > 100 µM | > 100 µM |  |  |  |  |  |  |  |  | 
Cc1ccc(S(=O)(=O)NC(=O)NCCC(=O)O)cc1 | > 100 µM | > 100 µM | > 100 µM | > 100 µM | > 100 µM | > 100 µM | > 100 µM | > 100 µM | > 100 µM | > 100 µM |  |  |  |  |  |  |  |  | 
CC1(C)CN(c2ccccc2)C(=O)C1OC(=O)[C@@]1(C)C[C@@H]2C=C[C@H]1C2 (some centres not stated) | 35.8 µM | > 100 µM | 43.9 µM | 40.1 µM | 94.7 µM | 35.4 µM | > 100 µM | 64.7 µM | 39.2 µM | 28.3 µM |  |  |  |  |  |  |  |  | 
C=CC(C)(C)N[C@@H](C(=O)N1CCC[C@H]1c1nc(-c2nc(C(=O)OCC=C(C)C)c(C)o2)c(C)o1)C(C)C | 38.6 µM | 88.3 µM | 45.1 µM | 83.4 µM | 86.8 µM | 91.8 µM | 65 µM | 63.2 µM | 44.5 µM | 39 µM |  |  |  |  |  |  |  |  | 
CC(=O)OCc1cc(=O)n(C)c2c3c4c(cc12)c(C)cc(=O)n4CO3 | 20 µM |  | 26.6 µM |  | 51 µM | 3.33 µM | 12.7 µM |  |  | 2.72 µM |  |  |  |  |  |  |  |  | 
O=C1CSC2=NCC3(NN12)c1ccccc1-c1ccccc13 | > 10 µM | > 10 µM |  | > 10 µM | > 10 µM | > 10 µM | > 10 µM | > 10 µM | > 10 µM | > 10 µM |  |  |  |  |  |  |  |  | 
CSc1nc(NC2OCC(O)C(O)C2O)c(N)c(=O)n1C (configuration not stated) | > 100 µM |  | > 100 µM |  | > 100 µM | > 100 µM | > 100 µM |  |  | > 100 µM |  |  |  |  |  |  |  |  | 
Fc1ccc(C2CC(c3cccc(Nc4ccncc4)c3)=NN2c2cc(Cl)cc(Cl)c2)cc1 (configuration not stated) | 3.15 µM | 3.02 µM |  | 3.28 µM | 3.54 µM | 2.99 µM | 4.77 µM | 3.84 µM |  | 3.41 µM | 1.66 µM | 1.66 µM | 1.74 µM | 1.79 µM | 1.59 µM | 2.2 µM | 1.94 µM | 1.72 µM | 
Nc1ccccc1NC(=O)CCCCCCC(=O)Nc1ccc2c(c1)/C(=C/c1ccc[nH]1)C(=O)N2 | > 100 µM | > 100 µM | > 100 µM | > 100 µM | > 100 µM | > 100 µM | > 100 µM |  |  | > 100 µM | 6.13 µM | 15.1 µM | 69.2 µM | 6.72 µM | > 100 µM | 5.59 µM |  | 6.2 µM | 1.08 µM
O=C1CCC2(CC1CCSc1ccccc1)OCCO2 (configuration not stated) |  | > 100 µM | > 100 µM | > 100 µM | > 100 µM | > 100 µM | > 100 µM | > 100 µM | > 100 µM | > 100 µM |  |  |  |  |  |  |  |  | 
C1#Cc2ccccc2OCCOc2ccccc2C#Cc2ccccc2OCCOc2ccccc21 | > 100 µM | 37.9 µM | 28.1 µM | > 100 µM |  | 35.4 µM | 28.3 µM | > 100 µM | 28.8 µM | 73 µM |  |  |  |  |  |  |  |  | 
Cc1cccc2nc3cccc(C(=O)NCCC[N+](C)(CCCNC(=O)c4cccc5nc6cccc(C)c6nc45)Cc4c([N+](=O)[O-])ncn4C)c3nc12 | > 1100 µM | > 1100 µM | > 1100 µM |  | > 1100 µM | > 1100 µM | > 1100 µM | > 1100 µM | > 1100 µM | 432 µM |  | 3.59 µM |  | > 1100 µM | 339 µM | 4.44 µM | 118 µM | 26.2 µM | 18.2 µM
COc1ccc(Oc2nc3ccc(C(F)(F)F)cc3nc2-c2ccccc2)cc1 | > 100 µM | > 100 µM | > 100 µM |  | > 100 µM | > 100 µM |  | > 100 µM | > 100 µM | > 100 µM |  |  |  |  |  |  |  |  | 
